Measured values as given in ChEMBL document CHEMBL2074150, “Nucleotide binding and nucleotide hydrolysis properties of the ABC transporter MRP6 (ABCC6)” (Biochemistry, 2002).

What was measured:
Assay type in all cases: functional, cell membranes, Membrane
Details in all cases: komagataella pastoris
[1] = molecular target: T1, ATP-binding cassette sub-family C member 6 (Rattus norvegicus, UniProt O88269); test: TP_TRANSPORTER: inhibition of photolabeling by IAARh123 (IAARh123: 1 uM, DOX: 1000 uM) in membranes from Mrp6-expressing P. pastoris
T1 sequence (O88269 whole entry): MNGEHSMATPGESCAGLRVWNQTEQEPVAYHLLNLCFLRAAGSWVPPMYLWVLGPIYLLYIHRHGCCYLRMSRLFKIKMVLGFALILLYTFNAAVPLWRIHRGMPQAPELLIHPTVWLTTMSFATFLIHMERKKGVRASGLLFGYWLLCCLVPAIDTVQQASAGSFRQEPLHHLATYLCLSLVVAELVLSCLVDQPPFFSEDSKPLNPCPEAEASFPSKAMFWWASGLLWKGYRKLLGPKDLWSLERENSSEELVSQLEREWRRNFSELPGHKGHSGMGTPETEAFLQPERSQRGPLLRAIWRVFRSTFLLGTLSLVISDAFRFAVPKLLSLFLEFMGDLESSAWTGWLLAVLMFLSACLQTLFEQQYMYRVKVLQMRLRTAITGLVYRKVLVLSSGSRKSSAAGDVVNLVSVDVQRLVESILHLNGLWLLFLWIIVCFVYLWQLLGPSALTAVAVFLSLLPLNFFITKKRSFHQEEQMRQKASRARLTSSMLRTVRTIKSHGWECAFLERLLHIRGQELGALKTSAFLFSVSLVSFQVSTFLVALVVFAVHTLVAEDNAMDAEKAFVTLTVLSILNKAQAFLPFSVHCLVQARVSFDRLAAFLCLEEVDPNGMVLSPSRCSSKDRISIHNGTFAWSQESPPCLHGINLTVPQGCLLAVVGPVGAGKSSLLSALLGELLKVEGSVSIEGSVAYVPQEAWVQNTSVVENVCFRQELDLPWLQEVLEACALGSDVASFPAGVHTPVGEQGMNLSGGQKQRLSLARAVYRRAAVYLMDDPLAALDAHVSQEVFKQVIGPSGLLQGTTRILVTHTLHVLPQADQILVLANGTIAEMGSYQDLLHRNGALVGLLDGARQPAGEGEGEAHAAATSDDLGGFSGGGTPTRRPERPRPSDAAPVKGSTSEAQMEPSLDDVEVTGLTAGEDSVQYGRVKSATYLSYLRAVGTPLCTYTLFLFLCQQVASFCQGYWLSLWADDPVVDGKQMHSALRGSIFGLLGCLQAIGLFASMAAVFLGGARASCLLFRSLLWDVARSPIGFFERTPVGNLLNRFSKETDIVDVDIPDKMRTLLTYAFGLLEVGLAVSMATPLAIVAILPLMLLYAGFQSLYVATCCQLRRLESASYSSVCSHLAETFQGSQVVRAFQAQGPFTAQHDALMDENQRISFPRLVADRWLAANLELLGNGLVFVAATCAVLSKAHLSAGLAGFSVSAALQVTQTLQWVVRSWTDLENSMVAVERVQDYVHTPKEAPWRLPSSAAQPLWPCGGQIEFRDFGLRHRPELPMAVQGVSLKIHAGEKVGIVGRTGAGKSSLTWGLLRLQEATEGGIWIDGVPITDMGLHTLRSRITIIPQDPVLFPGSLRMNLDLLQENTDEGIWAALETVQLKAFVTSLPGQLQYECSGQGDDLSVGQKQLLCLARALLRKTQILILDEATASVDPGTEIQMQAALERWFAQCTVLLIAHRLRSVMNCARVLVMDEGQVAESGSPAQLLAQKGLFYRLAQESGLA

[2] = molecular target: T1, ATP-binding cassette sub-family C member 6; test: TP_TRANSPORTER: inhibition of photolabeling by IAARh123 (IAARh123: 1 uM, K571: 1000 uM) in membranes from Mrp6-expressing P. pastoris
[3] = molecular target: T1, ATP-binding cassette sub-family C member 6; test: TP_TRANSPORTER: inhibition of photolabeling by IAARh123 (IAARh123: 1 uM, LTC4: 300 uM) in membranes from Mrp6-expressing P. pastoris
[4] = molecular target: T1, ATP-binding cassette sub-family C member 6; test: TP_TRANSPORTER: inhibition of photolabeling by IAARh123 (IAARh123: 1 uM, VBL: 1000 uM) in membranes from Mrp6-expressing P. pastoris
[5] = molecular target: T1, ATP-binding cassette sub-family C member 6; test: TP_TRANSPORTER: inhibition of photolabeling by IAARh123 (IAARh123: 1 uM, VP-16: 1000 uM) in membranes from Mrp6-expressing P. pastoris

COc1cccc2c1C(=O)c1c(O)c3c(c(O)c1C2=O)C[C@@](O)(C(=O)CO)C[C@@H]3O[C@H]1C[C@H](N)[C@H](O)[C@H](C)O1 [DOXORUBICIN]
Activity [1]: inhibitor [(at a rough estimate) 55 % of control]

CN(C)C(=O)CCSC(SCCC(=O)O)c1cccc(/C=C/c2ccc3ccc(Cl)cc3n2)c1 (stereo not given) [MK-571]
Activity [2]: inhibitor [(at a rough estimate) 60 % of control]

CCCCC/C=C\C\C=C/C=C/C=C/[C@@H](SC[C@@H](NC(=O)CC[C@H](N)C(=O)O)C(=O)NCC(=O)O)[C@@H](O)CCCC(=O)O [LEUKOTRIEN C4]
Activity [3]: is not an inhibitor [-]

CC[C@]1(O)C[C@@H]2CN(CCc3c([nH]c4ccccc34)[C@@](C(=O)OC)(c3cc4c(cc3OC)N(C)[C@H]3[C@@](O)(C(=O)OC)[C@H](OC(C)=O)[C@]5(CC)C=CCN6CC[C@]43[C@@H]65)C2)C1 [VINBLASTINE]
Activity [4]: inhibitor [(at a rough estimate) 55 % of control]

COc1cc([C@@H]2c3cc4c(cc3[C@@H](O[C@@H]3O[C@@H]5CO[C@@H](C)O[C@H]5[C@H](O)[C@H]3O)[C@H]3COC(=O)[C@H]23)OCO4)cc(OC)c1O [ETOPOSIDE]
Activity [5]: is not an inhibitor [-]
